From PMC10947113, “A Bivalent Activatable Fluorescent Probe for Screening and Intravital Imaging of Chemotherapy‐Induced Cancer Cell Death” (Angewandte Chemie (Weinheim an Der Bergstrasse, Germany), 2021)
Like-named read-outs stand apart in the source and are kept apart here.

B1: Annexin V‐AF647: a 36 kDa protein marker of PtdSer in the presence of Ca2+ ions (protein, UniProt P08758 2-320, looked up)
Annexin A5: AQVLRGTVTDFPGFDERADAETLRKAMKGLGTDEESILTLLTSRSNAQRQEISAAFKTLFGRDLLDDLKSELTGKFEKLIVALMKPSRLYDAYELKHALKGAGTNEKVLTEIIASRTPEELRAIKQVYEEEYGSSLEDDVVGDTSGYYQRMLVVLLQANRDPDAGIDEAQVEQDAQALFQAGELKWGTDEEKFITIFGTRSVSHLRKVFDKYMTISGFQIEETIDRETSGNLEQLLLAVVKSIRSIPAYLAETLYYAMKGAGTDDHTLIRVMVSRSEIDLFNIRKEFRKNFATSLYSMIKGDTSGDYKKALLLLCGEDD
modifications: Alexa Fluor 647 label
notes: a 36 kDa protein marker of PtdSer in the presence of Ca2+ ions

Experiments:
8 cancer cell lines = test: Classification of drugs by Apotracker Red (apoptosis) and CellTrace Violet (proliferation) staining; type: cell-based; settings: for effect on cell proliferation (CellTrace Violet): Figure S8
Method: (§1) To corroborate the versatility of Apotracker Red, we built a screening platform including a total of 8 cancer cell lines of variable origin and pathogenesis: breast (MCF7, MDA‐MB231 and MMTV‐PyMT (mouse mammary tumour virus‐polyoma middle tumour‐antigen)[23]), lung (A549), prostate (PC3 and LnCap), blood cells (Jurkat) and colon (HT29). All cell lines were cultured under standard conditions and seeded with the fluorescent proliferation marker CellTrace^TM Violet (CV) in 96‐well plates (10–20×10^3 cells/well) for high‐throughput flow cytometry. After drug treatment (i.e., drug addition plus 24 h incubation), Apotracker Red was incubated for 10 min and fluorescence readings were directly acquired without any additional processing steps (Figure 3 a). […] Using this platform, we tested a collection of FDA‐approved drugs in all cancer cell lines and compared their ability to induce apoptosis using Apotracker Red as the reporter. Specifically, we included DNA alkylation agents (e.g., cyclophosphamide, cisplatin, 5‐fluorouracil, gemcitabine, temozolomide), proteasomal and mitotic inhibitors (e.g., bortezomib, docetaxel, paclitaxel) and antagonists of specific proteins (e.g., dexamethasone, tamoxifen; Figure 3 b).
(§2) First, all drugs were tested in the 8 different cell lines to determine the percentages of Apotracker Red‐stained apoptotic cells compared to no treatment (Figure 3 c; Figure S8). […] All 5 drugs were tested at multiple concentrations (from 1 to 100 μM) and with incubation times up to 48 h to examine whether drugs could block cell proliferation at late stages (Figures S9–S13).
Figure S8. Heatmap of relative inhibition of cell proliferation (as indicated by staining of CellTraceTM Violet) after treatment of cancer cell lines with different drugs. Data presented as an average of 3 independent experiments. Cells were stained on day 0 with CellTraceTM Violet (1 µM) and mean fluorescence intensities were determined on the 5L LSR after 24 h of treatment with the different drugs. […]
Cell culture. MCF-7, A549, LnCap, MDA-MB-231, Jurkat T cells and PC3 cells were obtained from American Type Culture Collection (ATCC). HT29 cells were purchased from Merck (S i g m a Aldrich, UK). Mouse Mammary Tumour Virus –Polyoma Middle T antigen (MMTV -PyMT) cells were provided by the lab of Mikala Egeblad (CSHL, US). MMTV-PyMT, MCF-7, LnCap, MDA-MB-231 and Jurkat T cells were cultured in Roswell Park Memorial Institute (RPMI) 1640 Medium supplemented with 10% fetal bovine serum (FBS) , 100 U mL-1 penicillin and 0.1 mg mL-1 streptomycin. A549 and PC3 cells were cultured in Dublecco’s modified Eagle’s medium (DMEM) supplemented with 10% fetal bovine serum (FBS), 100 U mL-1 penicillin and 0.1 mg […]
Flow cytometry drug screen.

MDA-MB231 cells = test: Apotracker Red flow cytometry drug screen, MDA-MB231; type: cell-based, human; settings: 1 to 100 μM, 48 h, Apotracker Red 150 nM, 3 independent experiments
Method: as §1, with “cytometry.” for “cytometry. After drug treatment (i.e., drug addition plus 24 h incubation), Apotracker Red was incubated for 10 min and fluorescence readings were directly acquired without any additional processing steps (Figure 3 a).”
Edinburgh. Human peripheral blood neutrophils were isolated as previously described.[3] Briefly, whole blood was drawn into tubes containing anti -coagulant 3.6% sodium citrate (final concentration: 0.4% (w/v)) and centrifuged at 350 g for 20 min at r.t. with lowest acceleration and no brake. Platelet-rich plasma was rem oved, and leukocytes separated from erythrocytes by 0.6% dextran sedimentation in saline for 30 min at r.t. The upper layer was further fractionated using an isotonic discontinuous Percoll density gradient. Neutrophils were harvested from the 63% and 72.9% interface and cultured in Iscove’s Modified Dulbecco’s Medium (IMDM, Gibco) in 5% h um an A B se rum fo r 1 8 h at 37°C, 5% CO2 to in du ce spontaneous […]
Cell culture. MCF-7, A549, LnCap, MDA-MB-231, Jurkat T cells and PC3 cells were obtained from American Type Culture Collection (ATCC). HT29 cells were purchased from Merck (S i g m a Aldrich, UK). Mouse Mammary Tumour Virus –Polyoma Middle T antigen (MMTV -PyMT) cells were provided by the lab of Mikala Egeblad (CSHL, US). […]

[1] = test system: breast cancer cells (MMTV-PyMT, MDA-MB231, MCF7); test: Dose-dependency study in breast cancer cell lines; type: cell-based, mouse and human; settings: 1 to 100 μM, 48 h, Apotracker Red 150 nM, 3 independent experiments
Method: as §2, with “S8). […] From this screen, we decided to select 5 drugs with potent pro‐apoptotic response in breast cancer, the most diagnosed cancer worldwide.[25] […] From group 2, we selected cyclophosphamide, tamoxifen, and 5‐fluorouracil as pro‐apoptotic molecules.” for “S8).”
Figure 4 Apotracker Red detects dose‐dependent chemotherapeutic‐induced apoptosis in mouse and human breast cancer cell lines. Cells were plated with 1 μM CV, treated with increasing concentrations (0, 1, 3, 10, 30 and 100 μM) of selected drugs for 48 h, and stained with Apotracker Red (150 nM) before data acquisition. Drugs: tamoxifen (beige), cisplatin (black), 5‐fluorouracil (green), gemcitabine (pink) and cyclophosphamide (red). Data presented as mean±SEM of 3 independent experiments.
Edinburgh. Human peripheral blood neutrophils were isolated as previously described.[3] Briefly, whole blood was drawn into tubes containing anti -coagulant 3.6% sodium citrate (final concentration: 0.4% (w/v)) and centrifuged at 350 g for 20 min at r.t. with lowest acceleration and no brake. Platelet-rich plasma was rem oved, and leukocytes separated from erythrocytes by 0.6% dextran sedimentation in saline for 30 min at r.t. […]
were centrifuged (300 g, 5 min, r.t.), washed once with PBS before addition of 0.05% Trypsin, 0.02% ethylenediaminetetraacetic acid (EDTA) in Hank’s balanced salt solution (HBSS) and incubation at 37°C for 5 min. […] Histograms and mean fluorescence intensities of apoptotic cells were measured on a 5L LSR flow cytometer under the following excitation/emission filters: Apotracker Red (561/610 nm), Annexin V-AF647 (647 /670 nm).
Data were acquired using the FACS Diva software and analysed using the FlowJo X software. […]

[2] = test system: apoptotic cells (primary human neutrophils, Jurkat T cells); test: Divalent cation-independent staining, flow cytometry with EDTA; type: cell-based; settings: 2.5 mM EDTA, Apotracker Red 150 nM, Annexin V-AF647 25 nM
[3] = 8 cancer cell lines, 24 h treatment, flow cytometry

Row | Molecule | drug group by Apotracker Red (apoptosis) and CV (proliferation) staining (8 cancer cell lines; [3]) | Apotracker Red staining in MDA-MB-231 cells, dose-dependency study (MDA-MB231 cells) | further results
1 | O=c1[nH]cc(F)c(=O)[nH]1 [5-fluorouracil] | induced apoptosis with little reduction of cell proliferation | weaker Apotracker Red‐staining | 
2 | CC(C)C[C@H](NC(=O)[C@H](Cc1ccccc1)NC(=O)c1cnccn1)B(O)O [bortezomib] | induced apoptosis with little reduction of cell proliferation |  | effect on cell proliferation (CellTrace Violet) (8 cancer cell lines; 24 h treatment): very minor effects on cell proliferation
3 | O=P1(N(CCCl)CCCl)NCCCO1 (stereo not shown) [cyclophosphamide] |  | weaker Apotracker Red‐staining | drug group by Apotracker Red (apoptosis) and CV (proliferation) staining (8 cancer cell lines): induced apoptosis with little reduction of cell proliferation
4 | C[C@@H]1C[C@H]2[C@@H]3CCC4=CC(=O)C=C[C@]4(C)[C@@]3(F)[C@@H](O)C[C@]2(C)[C@@]1(O)C(=O)CO [dexamethasone] | had no impact on proliferation or apoptosis |  | 
5 | CC(=O)O[C@@]12CO[C@@H]1C[C@H](O)[C@@]1(C)C(=O)[C@H](O)C3=C(C)[C@@H](OC(=O)[C@H](O)[C@@H](NC(=O)OC(C)(C)C)c4ccccc4)C[C@@](O)([C@@H](OC(=O)c4ccccc4)[C@H]21)C3(C)C [docetaxel] | inhibited cell proliferation but showed little or no induction of apoptosis |  | 
6 | Nc1ccn([C@@H]2O[C@H](CO)[C@@H](O)C2(F)F)c(=O)n1 [gemcitabine] | induced apoptosis and decreased cell proliferation | weaker Apotracker Red‐staining | 
7 | CC(=O)O[C@H]1C(=O)[C@@]2(C)[C@H]([C@H](OC(=O)c3ccccc3)[C@]3(O)C[C@H](OC(=O)[C@H](O)[C@@H](NC(=O)c4ccccc4)c4ccccc4)C(C)=C1C3(C)C)[C@]1(OC(C)=O)CO[C@@H]1C[C@@H]2O [paclitaxel] | induced apoptosis with little reduction of cell proliferation |  | effect on cell proliferation (CellTrace Violet) (8 cancer cell lines; 24 h treatment): very minor effects on cell proliferation
8 | CC/C(=C(\c1ccccc1)c1ccc(OCCN(C)C)cc1)c1ccccc1 [tamoxifen] | induced apoptosis with little reduction of cell proliferation |  | percentages of Apotracker Red staining across all breast cancer cells, dose-dependency study [1]: highest percentages of Apotracker Red staining
9 | Cn1nnc2c(C(N)=O)ncn2c1=O [temozolomide] | inhibited cell proliferation but showed little or no induction of apoptosis |  | 
10 | B1 |  |  | staining of apoptotic cells after chelation of divalent cations [2]: failed to bind
